Data reported in ChEMBL document CHEMBL1139192, “Novel bis(indolyl)maleimide pyridinophanes that are potent, selective inhibitors of glycogen synthase kinase-3” (Bioorg Med Chem Lett, 2007).

How the values were obtained:
[1] = molecular target: Tyrosine-protein kinase ABL1 (Homo sapiens) (UniProt P00519); assay: Residual activity of human Abl kinase at 1 uM relative to control
[2] = molecular target: Proto-oncogene tyrosine-protein kinase ROS (Homo sapiens) (UniProt P08922); assay: Inhibition of human Ros kinase at 1 uM relative to control; values are per cent of control
[3] = molecular target: 3-phosphoinositide-dependent protein kinase 1 (Homo sapiens) (UniProt O15530); assay: Inhibition of human PDK1 at 1 uM relative to control; values are per cent of control
[4] = molecular target: T1, Serine/threonine-protein kinase Chk1 (Homo sapiens) (UniProt O14757); assay: Inhibition of human CHK1 at 1 uM relative to control; values are per cent of control
T1 sequence (whole entry): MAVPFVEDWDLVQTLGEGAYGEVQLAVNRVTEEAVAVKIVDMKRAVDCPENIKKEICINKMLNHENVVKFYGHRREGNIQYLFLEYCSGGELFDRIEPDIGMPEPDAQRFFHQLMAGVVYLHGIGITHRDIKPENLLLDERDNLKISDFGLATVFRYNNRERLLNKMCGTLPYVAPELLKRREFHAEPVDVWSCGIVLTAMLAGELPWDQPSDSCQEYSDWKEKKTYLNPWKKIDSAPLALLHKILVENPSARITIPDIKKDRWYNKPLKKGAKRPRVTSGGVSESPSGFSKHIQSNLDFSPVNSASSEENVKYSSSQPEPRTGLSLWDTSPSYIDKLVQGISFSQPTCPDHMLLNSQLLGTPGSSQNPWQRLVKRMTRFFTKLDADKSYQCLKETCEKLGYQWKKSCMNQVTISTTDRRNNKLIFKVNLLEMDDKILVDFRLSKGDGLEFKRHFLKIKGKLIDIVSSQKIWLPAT

[5] = molecular target: Mitogen-activated protein kinase 9 (Homo sapiens) (UniProt P45984); assay: Inhibition of human JNK2-alpha-2 at 1 uM relative to control; values are per cent of control
[6] = molecular target: Mitogen-activated protein kinase 8 (Homo sapiens) (UniProt P45983); assay: Inhibition of human JNK1alpha1 at 1 uM relative to control; values are per cent of control
[7] = molecular target: Ribosomal protein S6 kinase beta-1 (Homo sapiens) (UniProt P23443); assay: Inhibition of human p70S6K at 1 uM relative to control; values are per cent of control
[8] = molecular target: Epidermal growth factor receptor (Homo sapiens) (UniProt P00533); assay: Inhibition of human EGFR at 1 uM relative to control; values are per cent of control
[9] = molecular target: Serine/threonine-protein kinase Chk2 (Homo sapiens) (UniProt O96017); assay: Inhibition of human CHK2 at 1 uM relative to control; values are per cent of control
[10] = molecular target: Casein kinase I isoform delta (Homo sapiens) (UniProt P48730); assay: Inhibition of CK1delta at 1 uM relative to control; values are per cent of control
[11] = molecular target: Tyrosine-protein kinase Lyn (Homo sapiens) (UniProt P07948); assay: Inhibition of human Lyn at 1 uM relative to control; values are per cent of control
[12] = molecular target: Mitogen-activated protein kinase 1 (Homo sapiens) (UniProt P28482); assay: Inhibition of MAPK1 at 1 uM relative to control; values are per cent of control
[13] = molecular target: Insulin receptor (Homo sapiens) (UniProt P06213); assay: Residual activity of human IR at 1 uM relative to control
[14] = molecular target: T2, Mitogen-activated protein kinase 12 (Homo sapiens) (UniProt P53778); assay: Inhibition of human SAPK3 at 1 uM relative to control; values are per cent of control
T2 sequence (whole entry): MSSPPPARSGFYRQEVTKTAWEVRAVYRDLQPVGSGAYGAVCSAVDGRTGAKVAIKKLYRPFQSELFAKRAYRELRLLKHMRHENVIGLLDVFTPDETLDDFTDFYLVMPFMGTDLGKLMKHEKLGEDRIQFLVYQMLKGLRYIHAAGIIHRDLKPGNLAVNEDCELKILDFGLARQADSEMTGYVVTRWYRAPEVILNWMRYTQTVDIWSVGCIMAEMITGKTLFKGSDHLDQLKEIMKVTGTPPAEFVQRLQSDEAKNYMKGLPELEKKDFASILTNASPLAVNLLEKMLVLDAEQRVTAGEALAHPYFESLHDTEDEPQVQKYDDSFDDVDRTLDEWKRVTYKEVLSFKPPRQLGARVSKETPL

[15] = molecular target: T3, Serine/threonine-protein kinase Sgk1 (Homo sapiens) (UniProt O00141); assay: Inhibition of human SGK at 1 uM relative to control; values are per cent of control
T3 sequence (whole entry): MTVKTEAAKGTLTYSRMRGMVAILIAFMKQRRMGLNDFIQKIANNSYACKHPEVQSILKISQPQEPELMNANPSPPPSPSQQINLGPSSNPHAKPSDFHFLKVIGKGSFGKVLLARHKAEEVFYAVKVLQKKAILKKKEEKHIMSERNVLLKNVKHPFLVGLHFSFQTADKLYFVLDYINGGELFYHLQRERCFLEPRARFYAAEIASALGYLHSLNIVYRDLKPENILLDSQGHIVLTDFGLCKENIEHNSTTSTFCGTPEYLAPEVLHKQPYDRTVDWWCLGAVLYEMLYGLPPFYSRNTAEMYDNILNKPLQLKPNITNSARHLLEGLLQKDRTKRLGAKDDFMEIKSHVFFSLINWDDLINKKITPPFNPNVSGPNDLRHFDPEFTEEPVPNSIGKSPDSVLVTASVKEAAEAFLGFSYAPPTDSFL

[16] = molecular target: Protein kinase C beta type (Homo sapiens, UniProt P05771); assay: Inhibition of human recombinant PKCbeta2
[17] = molecular target: Tyrosine-protein kinase Lyn (Mus musculus) (UniProt P25911); assay: Inhibition of mouse Lyn at 1 uM relative to control; values are per cent of control
[18] = molecular target: Angiopoietin-1 receptor (Homo sapiens) (UniProt Q02763); assay: Residual activity of human Tie2 at 1 uM relative to control
[19] = organism: Rattus norvegicus; assay: Inhibition of rat AMPK at 1 uM relative to control; values are per cent of control
[20] = molecular target: MAP kinase-activated protein kinase 2 (Homo sapiens) (UniProt P49137); assay: Inhibition of MAPKAPK2 at 1 uM relative to control; values are per cent of control
MAP kinase-activated protein kinase 2 (Homo sapiens), sequence (P49137 whole entry, looked up): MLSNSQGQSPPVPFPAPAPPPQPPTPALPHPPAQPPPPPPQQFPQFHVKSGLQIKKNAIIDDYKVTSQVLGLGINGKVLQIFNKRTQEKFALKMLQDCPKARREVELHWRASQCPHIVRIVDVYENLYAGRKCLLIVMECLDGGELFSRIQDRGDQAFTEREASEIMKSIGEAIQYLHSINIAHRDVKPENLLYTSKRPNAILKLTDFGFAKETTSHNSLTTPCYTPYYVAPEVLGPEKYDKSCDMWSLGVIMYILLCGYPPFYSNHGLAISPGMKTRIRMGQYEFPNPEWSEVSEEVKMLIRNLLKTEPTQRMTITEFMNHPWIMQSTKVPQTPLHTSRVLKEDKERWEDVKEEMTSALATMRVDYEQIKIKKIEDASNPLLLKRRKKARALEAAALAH

Insulin receptor (Homo sapiens), sequence (P06213 whole entry, looked up): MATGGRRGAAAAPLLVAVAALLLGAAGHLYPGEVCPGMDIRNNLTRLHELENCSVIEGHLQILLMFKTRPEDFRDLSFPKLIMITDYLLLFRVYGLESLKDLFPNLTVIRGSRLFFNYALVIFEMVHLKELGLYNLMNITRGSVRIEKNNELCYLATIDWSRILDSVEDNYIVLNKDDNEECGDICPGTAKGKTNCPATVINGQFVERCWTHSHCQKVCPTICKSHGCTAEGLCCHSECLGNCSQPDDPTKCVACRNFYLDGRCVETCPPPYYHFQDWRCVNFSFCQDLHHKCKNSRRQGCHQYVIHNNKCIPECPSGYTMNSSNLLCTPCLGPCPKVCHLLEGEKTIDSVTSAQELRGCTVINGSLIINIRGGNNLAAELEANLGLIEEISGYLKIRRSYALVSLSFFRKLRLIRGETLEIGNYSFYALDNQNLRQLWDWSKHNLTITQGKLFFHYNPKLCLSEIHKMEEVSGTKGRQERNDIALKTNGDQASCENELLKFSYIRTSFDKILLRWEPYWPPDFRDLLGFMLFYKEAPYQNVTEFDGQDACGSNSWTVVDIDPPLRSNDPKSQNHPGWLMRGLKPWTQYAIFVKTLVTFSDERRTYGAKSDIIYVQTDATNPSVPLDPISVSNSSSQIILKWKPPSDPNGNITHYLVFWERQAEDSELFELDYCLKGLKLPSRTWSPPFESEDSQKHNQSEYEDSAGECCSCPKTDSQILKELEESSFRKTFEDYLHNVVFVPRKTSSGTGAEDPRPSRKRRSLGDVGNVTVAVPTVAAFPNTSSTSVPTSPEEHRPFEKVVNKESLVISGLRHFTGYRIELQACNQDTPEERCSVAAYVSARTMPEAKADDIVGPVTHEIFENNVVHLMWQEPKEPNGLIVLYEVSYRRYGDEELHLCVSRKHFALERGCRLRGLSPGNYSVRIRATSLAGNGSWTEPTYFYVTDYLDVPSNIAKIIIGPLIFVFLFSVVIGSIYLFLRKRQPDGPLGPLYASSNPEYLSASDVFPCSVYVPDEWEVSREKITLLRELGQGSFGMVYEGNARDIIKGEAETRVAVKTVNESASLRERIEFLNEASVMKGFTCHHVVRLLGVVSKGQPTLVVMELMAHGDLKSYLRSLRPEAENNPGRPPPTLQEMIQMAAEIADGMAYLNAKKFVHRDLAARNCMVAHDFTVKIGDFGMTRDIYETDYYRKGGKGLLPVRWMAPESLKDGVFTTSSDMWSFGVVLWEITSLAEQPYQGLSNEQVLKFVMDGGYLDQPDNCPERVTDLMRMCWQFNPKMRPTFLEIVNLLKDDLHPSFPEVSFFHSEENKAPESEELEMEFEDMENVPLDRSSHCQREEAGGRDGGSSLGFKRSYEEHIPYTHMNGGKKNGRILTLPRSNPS
Tyrosine-protein kinase Lyn (Homo sapiens), sequence (P07948 2-512 limits assumed): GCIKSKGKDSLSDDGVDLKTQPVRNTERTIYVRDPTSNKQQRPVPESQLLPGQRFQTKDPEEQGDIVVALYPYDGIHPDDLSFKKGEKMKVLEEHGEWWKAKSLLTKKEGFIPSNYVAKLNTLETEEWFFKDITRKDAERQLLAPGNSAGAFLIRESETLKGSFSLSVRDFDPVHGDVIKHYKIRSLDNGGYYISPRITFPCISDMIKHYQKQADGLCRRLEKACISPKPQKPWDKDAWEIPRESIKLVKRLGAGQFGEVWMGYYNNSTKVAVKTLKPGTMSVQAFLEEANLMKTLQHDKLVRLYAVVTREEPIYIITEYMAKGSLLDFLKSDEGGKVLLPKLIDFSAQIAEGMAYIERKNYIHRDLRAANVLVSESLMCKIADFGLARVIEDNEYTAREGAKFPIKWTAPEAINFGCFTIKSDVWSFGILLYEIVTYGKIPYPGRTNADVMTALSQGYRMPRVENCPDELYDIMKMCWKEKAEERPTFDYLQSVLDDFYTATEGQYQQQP
3-phosphoinositide-dependent protein kinase 1 (Homo sapiens), sequence (O15530 whole entry, looked up): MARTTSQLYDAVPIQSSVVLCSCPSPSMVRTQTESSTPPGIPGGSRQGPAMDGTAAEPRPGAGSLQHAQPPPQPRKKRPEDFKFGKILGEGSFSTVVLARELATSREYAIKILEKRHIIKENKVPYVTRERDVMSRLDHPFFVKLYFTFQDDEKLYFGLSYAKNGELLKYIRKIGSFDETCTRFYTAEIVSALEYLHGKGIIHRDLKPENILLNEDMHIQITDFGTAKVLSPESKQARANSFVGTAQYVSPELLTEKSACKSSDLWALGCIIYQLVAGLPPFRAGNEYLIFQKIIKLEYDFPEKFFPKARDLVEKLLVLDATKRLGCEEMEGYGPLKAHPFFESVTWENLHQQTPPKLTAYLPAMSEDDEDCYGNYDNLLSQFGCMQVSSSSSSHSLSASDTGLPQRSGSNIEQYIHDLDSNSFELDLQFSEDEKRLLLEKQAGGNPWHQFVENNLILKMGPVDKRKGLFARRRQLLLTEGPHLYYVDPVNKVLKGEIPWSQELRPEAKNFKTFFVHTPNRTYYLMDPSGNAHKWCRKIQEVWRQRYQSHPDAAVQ
Mitogen-activated protein kinase 1 (Homo sapiens), sequence (P28482 whole entry): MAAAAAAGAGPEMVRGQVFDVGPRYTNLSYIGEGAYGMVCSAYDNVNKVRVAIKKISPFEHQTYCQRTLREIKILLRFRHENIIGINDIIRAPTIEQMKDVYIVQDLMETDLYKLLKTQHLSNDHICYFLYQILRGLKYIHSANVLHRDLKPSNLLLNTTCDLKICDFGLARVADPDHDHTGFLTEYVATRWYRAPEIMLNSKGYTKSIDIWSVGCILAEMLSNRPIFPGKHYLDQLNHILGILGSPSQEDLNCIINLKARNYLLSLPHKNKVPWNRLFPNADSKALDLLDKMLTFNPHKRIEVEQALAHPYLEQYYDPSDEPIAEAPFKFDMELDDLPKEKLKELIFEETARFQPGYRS
Tyrosine-protein kinase ABL1 (Homo sapiens), sequence (P00519 whole entry): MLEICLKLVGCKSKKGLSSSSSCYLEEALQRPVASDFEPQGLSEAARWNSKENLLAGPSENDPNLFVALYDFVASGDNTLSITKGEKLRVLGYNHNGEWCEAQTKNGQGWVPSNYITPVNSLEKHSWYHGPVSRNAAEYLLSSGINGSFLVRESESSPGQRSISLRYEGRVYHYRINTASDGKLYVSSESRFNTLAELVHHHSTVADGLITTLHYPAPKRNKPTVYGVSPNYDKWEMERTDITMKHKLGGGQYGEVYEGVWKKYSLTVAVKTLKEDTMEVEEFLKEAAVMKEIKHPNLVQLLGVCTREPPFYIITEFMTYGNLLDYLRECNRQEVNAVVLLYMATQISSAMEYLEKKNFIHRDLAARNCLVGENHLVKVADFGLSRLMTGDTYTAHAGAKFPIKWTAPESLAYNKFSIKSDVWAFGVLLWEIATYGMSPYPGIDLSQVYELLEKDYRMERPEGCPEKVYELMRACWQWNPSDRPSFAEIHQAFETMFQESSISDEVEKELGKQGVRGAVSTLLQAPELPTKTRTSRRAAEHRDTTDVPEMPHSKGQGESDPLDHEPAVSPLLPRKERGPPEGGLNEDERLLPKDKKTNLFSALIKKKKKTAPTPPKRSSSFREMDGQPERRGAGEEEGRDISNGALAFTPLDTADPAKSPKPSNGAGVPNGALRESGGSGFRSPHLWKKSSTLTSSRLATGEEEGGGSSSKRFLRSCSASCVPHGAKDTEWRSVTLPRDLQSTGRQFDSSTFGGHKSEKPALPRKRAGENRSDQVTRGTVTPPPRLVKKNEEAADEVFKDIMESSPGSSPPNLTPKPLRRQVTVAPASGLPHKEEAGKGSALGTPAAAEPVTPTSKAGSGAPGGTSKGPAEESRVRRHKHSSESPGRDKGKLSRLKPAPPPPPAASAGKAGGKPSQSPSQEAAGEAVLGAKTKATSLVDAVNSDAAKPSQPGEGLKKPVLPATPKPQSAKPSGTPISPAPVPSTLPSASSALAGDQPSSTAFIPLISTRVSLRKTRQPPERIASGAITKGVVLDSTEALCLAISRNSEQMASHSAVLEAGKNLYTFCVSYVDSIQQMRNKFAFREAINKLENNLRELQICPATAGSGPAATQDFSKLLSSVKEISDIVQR
Ribosomal protein S6 kinase beta-1 (Homo sapiens), sequence (P23443 whole entry, looked up): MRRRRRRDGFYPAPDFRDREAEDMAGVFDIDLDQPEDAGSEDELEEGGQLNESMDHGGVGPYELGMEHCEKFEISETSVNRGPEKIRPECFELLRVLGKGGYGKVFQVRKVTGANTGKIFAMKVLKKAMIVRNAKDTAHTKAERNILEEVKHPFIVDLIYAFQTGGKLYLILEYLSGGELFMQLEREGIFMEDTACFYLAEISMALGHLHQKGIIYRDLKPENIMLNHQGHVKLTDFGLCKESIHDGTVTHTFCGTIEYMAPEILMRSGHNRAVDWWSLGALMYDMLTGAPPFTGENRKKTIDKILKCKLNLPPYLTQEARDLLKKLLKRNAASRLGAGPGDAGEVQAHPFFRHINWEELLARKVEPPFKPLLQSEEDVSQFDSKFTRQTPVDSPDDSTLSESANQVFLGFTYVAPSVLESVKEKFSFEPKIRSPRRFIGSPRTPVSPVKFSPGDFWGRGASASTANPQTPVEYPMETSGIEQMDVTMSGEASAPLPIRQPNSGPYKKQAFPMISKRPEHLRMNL

| residual activity [1] | residual activity [2] | residual activity [3] | residual activity [4] | residual activity [5] | residual activity [6] | residual activity [7] | residual activity [8] | residual activity [9] | residual activity [10] | residual activity [11] | residual activity [12] | residual activity [13] | residual activity [14] | residual activity [15] | IC50 [16] | residual activity [17] | residual activity [18] | residual activity [19] | residual activity [20] | Structure (SMILES) |
| --- | --- | --- | --- | --- | --- | --- | --- | --- | --- | --- | --- | --- | --- | --- | --- | --- | --- | --- | --- | --- |
| 108% | 105% | 100% | 106% | 110% | 104% | 84% | 104% | 91% | 109% | 78% | 110% | 87% | 114% | 93% | 2200 nM | 104% | 107% | 99% |  | O=C1NC(=O)C2=C1c1cn(c3ccccc13)CCCc1ccc(c(N3CCCC3)n1)CCCn1cc2c2ccccc21 |
| 98% | 108% | 104% | 101% | 106% | 105% | 91% | 96% | 94% | 111% | 76% | 86% | 102% | 115% | 105% | 2400 nM | 102% | 109% | 101% | 101% | CN(C)c1cc2cc(n1)CCCn1cc(c3ccccc31)C1=C(C(=O)NC1=O)c1cn(c3ccccc13)CCC2 |
| 107% | 117% | 107% | 110% | 114% | 108% | 95% | 108% | 84% | 112% | 87% | 99% | 110% | 103% | 109% | 1200 nM | 99% | 96% | 105% | 108% | O=C1NC(=O)C2=C1c1cn(c3ccccc13)CCCc1cc(nc(N3CCCC3)c1)CCCn1cc2c2ccccc21 |
| 105% | 79% | 115% | 105% | 96% | 102% | 98% | 94% | 91% | 107% | 107% | 97% | 91% | 78% | 93% | 1400 nM | 90% | 110% | 101% | 98% | CN(C)c1nc2ccc1CCCn1cc(c3ccccc31)C1=C(C(=O)NC1=O)c1cn(c3ccccc13)CC2 |
